Assay type in all cases: cell-based
Data set [1] is described as follows: MTT cell viability assay (cytotoxicity). To be noted: human, HEK293 cells. As for the experimental part:
After treating HEK293 cells with octominin-CNP and octominin, MTT (3-(4,5-dimethylthiazol-2-yl)-2,5-diphenyltetrazolium bromide) assay was performed to confirm cell viability.
First, HEK293 cells were cultured using DMEM (Dulbecco's modified Eagle's medium (Sigma-Aldrich, Munich, Germany)) containing 10% (v/v) fetal bovine serum (FBS, (Sigma-Aldrich, Munich, Germany)) and antibiotic-antimycotic (Thermo Fisher Scientific, Waltham, MA, USA). In addition, it was cultured for 24 hours under humidified conditions of 5% CO2 and 37° C. The cells were collected and seeded in a 96-well microplate at a cell density of 2.0×10^5 cells/mL (100 μL/well) and allowed to adhere to the well for 12 hours. The culture medium was then replaced, and they were treated with octominin-CNP (0 to 400 μg/mL) or octominin (0 to 400 μg/mL). After 24 hours of culture, the culture medium was replaced with fresh medium (90 μL), and 10 μL of MTT ([…]) was added to each well, followed by incubation at 37° C. for 4 hours. Then, 50 μL of DMSO was added to the wells in which the culture medium was eradicated to solubilize the resulting formazan dye. Their absorbances were measured at 595 nm using a microplate spectrophotometer (Bio-Rad, Saint Louis, (MO, USA)).

The subject of data set [2] is Candida albicans. As for the experimental part: (§1) Prior to confirming the antibacterial and antifungal activity of octominin-CNP or free octominin, for the antibacterial activity of octominin against Acinetobacter baumannii (A. baumannii) through preliminary analysis, it was confirmed that minimum inhibitory concentration (MIC) was 5 μg/mL, and the minimum bactericidal concentration (MBC) was 10 μg/mL. In addition, for the antifungal activity against Candida albicans (C. albicans), it was confirmed that the MIC was 50 μg/mL and the minimum fungicidal concentration (MFC) was 200 μg/mL. Accordingly, the antibacterial and antifungal activities of octominin-CNP and free octominin against A. baumannii and C. albicans were confirmed at the MIC and MBC/MFC peptide concentrations.

In data set [3] the test system is Acinetobacter baumannii. As for the experimental part:
as §1

≈ marks a conversion by molar mass, not a printed value. Peptide text beside a SMILES is read from it.

The results in this text go back to patent publication US20230381273A1, “NANOPARTICLE IN WHICH ANTIBACTERIAL PEPTIDE IS ENCAPSULATED WITH CHITOSAN AND USE THEREOF” (NATIONAL MARINE BIODIVERSITY INSTITUTE OF KOREA, priority 2022, published 2023).

By viability is commonly meant a per cent measure of how many cells are alive, often set against a control. As usually defined, the MIC is the lowest concentration found to suppress growth. A higher MIC goes with weaker potency. Molecule `CC[C@H](C)[C@H](NC(=O)[C@H](C)NC(=O)[C@H](CCCCN)NC(=O)CNC(=O)[C@H](C)NC(=O)[C@H](Cc1c[nH]cn1)NC(=O)[C@@H](NC(=O)[C@H](C)NC(=O)CNC(=O)[C@H](CCCNC(=N)N)NC(=O)[C@@H](NC(=O)[C@H](CC(C)C)NC(=O)[C@H](Cc1c[nH]c2ccccc12)NC(=O)CN)[C@@H](C)CC)[C@@H](C)CC)C(=O)N[C@@H](Cc1c[nH]cn1)C(=O)NCC(=O)N[C@@H](CC(C)C)C(=O)N[C@H](C(=O)N[C@@H](Cc1c[nH]cn1)C(=O)N[C@@H](CCCNC(=N)N)C(=O)N[C@@H](CCCNC(=N)N)C(=O)N[C@@H](CCCNC(=N)N)C(=O)N[C@@H](Cc1c[nH]cn1)C(=O)O)[C@@H](C)CC` [octominin] (H-GWLIRGAIHAGKAIHGLIHRRRH-OH) returned a viability at 24 h, 400 µg/mL in data set [1] of 85.2%. In addition, in data set [2], the MIC stood at 50 µg/mL (≈ 19 µM) and the “minimum fungicidal concentration (MFC)” value was 200 µg/mL (≈ 76.2 µM). In addition, in data set [3], the “minimum bactericidal concentration (MBC)” value came out at 10 µg/mL (≈ 3.81 µM) and the “minimum inhibitory concentration (MIC)” value came out at 5 µg/mL (≈ 1.9 µM).
